From PubChem BioAssay AID330 (DTP/NCI, 2004)
Values joined by “and” are separate entries in the source; they are usually repeats but may differ in a detail not shown here. Equal entries are not always repeated. Toxic doses and inconclusive results are not listed. How the source made its calls: active means survival T/C of 150% or more; inactive means T/C below 125% in these data.

Test system: P388 leukemia ip, CD2F1 mice, survival T/C
Experiment: NCI In Vivo Anticancer Drug Screen. Data for tumor model P388 Leukemia (intraperitoneal) in CD2F1 (CDF1) mice
Details: endpoint: median survival time, higher = longer survival
Method in brief: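 Mice carrying the transplanted tumor received test compound or vehicle. Survival was recorded in each group, and the value is the treated-group measurement divided by that of the vehicle-treated control group.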

[1] = dose: 50.0 mg/kg/injection, schedule: Q01DX005 (ip), vehicle: saline with Tween-80
[2] = dose: 100.0 mg/kg/injection, schedule: Q01DX005 (ip), vehicle: saline with Tween-80
[3] = dose: 200.0 mg/kg/injection, schedule: Q01DX005 (ip), vehicle: saline with Tween-80
[4] = dose: 100.0 mg/kg/injection, schedule: Q01DX001 (ip), vehicle: Klucel (hydroxypropylcellulose) (HPC)
[5] = dose: 200.0 mg/kg/injection, schedule: Q01DX001 (ip), vehicle: Klucel (hydroxypropylcellulose) (HPC)
[6] = dose: 12.5 mg/kg/injection, schedule: Q01DX009 (ip), vehicle: saline with Tween-80
[7] = dose: 50.0 mg/kg/injection, schedule: Q01DX009 (ip), vehicle: saline
[8] = dose: 50.0 mg/kg/injection, schedule: Q01DX009 (ip), vehicle: suspension in saline
[9] = dose: 100.0 mg/kg/injection, schedule: Q01DX009 (ip), vehicle: saline
[10] = dose: 100.0 mg/kg/injection, schedule: Q01DX009 (ip), vehicle: suspension in saline
[11] = dose: 200.0 mg/kg/injection, schedule: Q01DX009 (ip), vehicle: saline
[12] = dose: 400.0 mg/kg/injection, schedule: Q01DX009 (ip), vehicle: saline with Tween-80
[13] = dose: 12.5 mg/kg/injection, schedule: Q01DX009 (ip), vehicle: saline
[14] = dose: 25.0 mg/kg/injection, schedule: Q01DX009 (ip), vehicle: saline
[15] = dose: 50.0 mg/kg/injection, schedule: Q01DX009 (ip), vehicle: saline with Tween-80
[16] = dose: 60.0 mg/kg/injection, schedule: Q01DX005 (ip), vehicle: saline with Tween-80
[17] = dose: 120.0 mg/kg/injection, schedule: Q01DX005 (ip), vehicle: saline with Tween-80
[18] = dose: 240.0 mg/kg/injection, schedule: Q01DX005 (ip), vehicle: saline with Tween-80
[19] = dose: 50.0 mg/kg/injection, schedule: Q01DX005 (ip), vehicle: saline
[20] = dose: 100.0 mg/kg/injection, schedule: Q01DX005 (ip), vehicle: saline

Measured: T/C

CCCCCCCCCCCCCCCC[N+](C)(C)CCSc1ccccc1
inactive: dose: 1.56 mg/kg/injection, schedule: Q01DX009 (ip), vehicle: distilled water + alcohol 107 % of control and 108 % of control and 111 % of control | dose: 3.12 mg/kg/injection, schedule: Q01DX009 (ip), vehicle: distilled water + alcohol 110 % of control (2×) and 122 % of control | dose: 12.5 mg/kg/injection, schedule: Q01DX009 (ip), vehicle: distilled water + alcohol 98 % of control

C/C(=N/O)C1CCC(C2CCCC(C3CCCCC3)C2)CC1 (stereo unspecified)
inactive: [1] 94 % of control | [2] 94 % of control | [3] 93 % of control

COc1cc2c(cc1OC)C(C)N(C)c1c-2c(OC(C)=O)cc2cc(OC)c(OC)cc12 (stereo unspecified)
inactive: [1] 97 % of control | [2] 100 % of control | [3] 92 % of control

C/C=C(\C)C(=O)OC1C(C)=C2C(C1OC(=O)CCCC)C(C)(OC(C)=O)CC(OC(=O)CCCC)C1(O)C2OC(=O)C1(C)O (stereo unspecified)
inactive: dose: 0.37 mg/kg/injection, schedule: Q01DX009 (ip), vehicle: Klucel (hydroxypropylcellulose) (HPC) 92 % of control | dose: 0.75 mg/kg/injection, schedule: Q01DX009 (ip), vehicle: Klucel (hydroxypropylcellulose) (HPC) 101 % of control | dose: 1.5 mg/kg/injection, schedule: Q01DX009 (ip), vehicle: Klucel (hydroxypropylcellulose) (HPC) 100 % of control | dose: 3.0 mg/kg/injection, schedule: Q01DX009 (ip), vehicle: Klucel (hydroxypropylcellulose) (HPC) 100 % of control

NC(=S)c1ccc(N=Cc2cccc([N+](=O)[O-])c2)cc1
inactive: [4] 98 % of control | [5] 124 % of control | dose: 400.0 mg/kg/injection, schedule: Q01DX001 (ip), vehicle: Klucel (hydroxypropylcellulose) (HPC) 104 % of control

Cc1cc(N(CCCl)CCCl)ccc1CN1CCCN(Cc2ccc(N(CCCl)CCCl)cc2C)C1c1ccccc1O
inactive: [6] 123 % of control

CC(=O)OCC1OC(Oc2ncccn2)C(OC(C)=O)C1OC(C)=O (stereo unspecified)
inactive: [7] 98 % of control | [8] 100 % of control | [9] 103 % of control | [10] 99 % of control | [11] 100 % of control | dose: 200.0 mg/kg/injection, schedule: Q01DX009 (ip), vehicle: suspension in saline 99 % of control | dose: 400.0 mg/kg/injection, schedule: Q01DX009 (ip), vehicle: saline 99 % of control | dose: 400.0 mg/kg/injection, schedule: Q01DX009 (ip), vehicle: suspension in saline 96 % of control

Cc1ccc(S(=O)(=O)/C(=N\O)c2ccc(Cl)cc2)cc1
inactive: dose: 50.0 mg/kg/injection, schedule: Q01DX005 (ip), vehicle: Klucel (hydroxypropylcellulose) (HPC) 96 % of control | dose: 100.0 mg/kg/injection, schedule: Q01DX005 (ip), vehicle: Klucel (hydroxypropylcellulose) (HPC) 107 % of control | dose: 200.0 mg/kg/injection, schedule: Q01DX005 (ip), vehicle: Klucel (hydroxypropylcellulose) (HPC) 95 % of control

COc1cc2cc[n+](C)cc2cc1OC
inactive: dose: 6.25 mg/kg/injection, schedule: Q01DX009 (ip), vehicle: water 90 % of control | dose: 12.5 mg/kg/injection, schedule: Q01DX009 (ip), vehicle: water 102 % of control | dose: 22.0 mg/kg/injection, schedule: Q01DX009 (ip), vehicle: water 121 % of control | dose: 25.0 mg/kg/injection, schedule: Q01DX009 (ip), vehicle: water 107 % of control | dose: 33.0 mg/kg/injection, schedule: Q01DX009 (ip), vehicle: water 115 % of control | dose: 75.0 mg/kg/injection, schedule: Q01DX009 (ip), vehicle: water 121 % of control | dose: 100.0 mg/kg/injection, schedule: Q01DX009 (ip), vehicle: water 123 % of control

COc1ccc(N2CSC(=S)N(c3ccc(OC)cc3)C2)cc1
inactive: [12] 86 % of control

CCCCCCC(=O)OCCN1CCN(CC/C=C2\c3ccccc3Sc3ccc(C(F)(F)F)cc32)CC1
inactive: [13] 100 % of control and 95 % of control | dose: 12.5 mg/kg/injection, schedule: Q01DX009 (ip), vehicle: suspension in saline 98 % of control | [14] 112 % of control | dose: 25.0 mg/kg/injection, schedule: Q01DX009 (ip), vehicle: suspension in saline 102 % of control and 94 % of control | [7] 106 % of control and 95 % of control | [8] 100 % of control and 123 % of control and 92 % of control | [9] 99 % of control and 113 % of control | [10] 107 % of control (2×) and 92 % of control

CNc1c(NC)n(C)c(=O)n(C)c1=O
inactive: [15] 90 % of control | [7] 109 % of control | dose: 100.0 mg/kg/injection, schedule: Q01DX009 (ip), vehicle: saline with Tween-80 105 % of control and 97 % of control | [9] 109 % of control | dose: 200.0 mg/kg/injection, schedule: Q01DX009 (ip), vehicle: saline with Tween-80 121 % of control and 97 % of control | [11] 106 % of control | [12] 100 % of control and 112 % of control

COc1cc2c3c(c1)/C(=N\Nc1ccccc1)CCN3CCC2
inactive: dose: 3.12 mg/kg/injection, schedule: Q01DX009 (ip), vehicle: DMSO 99 % of control

CCc1c(-c2ccccc2)nc(N(C)C)oc1=O
inactive: [16] 106 % of control | [17] 100 % of control | [18] 98 % of control

Cn1nnnc1-c1cccc(F)c1
inactive: dose: 50.0 mg/kg/injection, schedule: Q01DX001 (ip), vehicle: Klucel (hydroxypropylcellulose) (HPC) 101 % of control | [4] 102 % of control | [5] 104 % of control

O=C(CCl)NCC1OC(n2cnc3c(=O)[nH]cnc32)C(O)C1O (stereo unspecified)
inactive: [19] 98 % of control | [20] 96 % of control | dose: 200.0 mg/kg/injection, schedule: Q01DX005 (ip), vehicle: saline 100 % of control

c1ccc(OP(Oc2ccccc2)(c2ccccc2)(c2ccccc2)c2ccccc2)cc1
inactive: dose: 50.0 mg/kg/injection, schedule: Q01DX009 (ip), vehicle: Klucel (hydroxypropylcellulose) (HPC) 97 % of control | dose: 100.0 mg/kg/injection, schedule: Q01DX009 (ip), vehicle: Klucel (hydroxypropylcellulose) (HPC) 99 % of control | dose: 200.0 mg/kg/injection, schedule: Q01DX009 (ip), vehicle: Klucel (hydroxypropylcellulose) (HPC) 111 % of control

Cc1nnc(NC/C=C/c2ccccc2)s1
inactive: [16] 100 % of control | [17] 96 % of control | [18] 95 % of control

CCC(C)/[N+]([O-])=N\O (stereo unspecified)
inactive: dose: 3.0 mg/kg/injection, schedule: Q01DX005 (ip), vehicle: Klucel (hydroxypropylcellulose) (HPC) 98 % of control | dose: 6.0 mg/kg/injection, schedule: Q01DX005 (ip), vehicle: Klucel (hydroxypropylcellulose) (HPC) 91 % of control | dose: 12.0 mg/kg/injection, schedule: Q01DX005 (ip), vehicle: Klucel (hydroxypropylcellulose) (HPC) 100 % of control | dose: 24.0 mg/kg/injection, schedule: Q01DX005 (ip), vehicle: Klucel (hydroxypropylcellulose) (HPC) 97 % of control

C[CH2][Sn]([Br])([CH2]C)[c]1ccccc1CN(C)C
inactive: [13] 100 % of control and 114 % of control | [14] 100 % of control and 114 % of control | [7] 117 % of control and 124 % of control

CCOC(=O)/C(=C(\C)N)C1CC(=O)NC1=O (stereo unspecified)
inactive: [14] 104 % of control | [7] 104 % of control | [9] 101 % of control | [11] 107 % of control

C=CCN(CC=C)C1CCOC(OC)C1O (stereo unspecified)
inactive: dose: 30.0 mg/kg/injection, schedule: Q01DX005 (ip), vehicle: saline 100 % of control and 112 % of control | dose: 60.0 mg/kg/injection, schedule: Q01DX005 (ip), vehicle: saline 113 % of control [middle of 4 runs] | dose: 120.0 mg/kg/injection, schedule: Q01DX005 (ip), vehicle: saline 119 % of control [middle of 4 runs] | dose: 240.0 mg/kg/injection, schedule: Q01DX005 (ip), vehicle: saline 99 % of control and 119 % of control and 123 % of control

COC(=O)c1cc(NC(=O)O/N=C/c2cccnc2)cc(C(=O)OC)c1
inactive: [7] 103 % of control | [9] 91 % of control

Cc1cc[n+](-c2c3c(nc4ccccc24)-c2ccccc2C(C)(C)C3)cc1
inactive: dose: 12.5 mg/kg/injection, schedule: Q01DX005 (ip), vehicle: saline 100 % of control | dose: 25.0 mg/kg/injection, schedule: Q01DX005 (ip), vehicle: saline 91 % of control | [19] 94 % of control | [20] 106 % of control

CCNCc1c(C)nc2ccc(N(C)C)cc2c1Cl
inactive: [6] 91 % of control | dose: 25.0 mg/kg/injection, schedule: Q01DX009 (ip), vehicle: saline with Tween-80 104 % of control | [15] 88 % of control
